Measured values as given in patent publication US12503471B2, “Triazatricycle compounds for the treatment of autoimmune disease” (Hoffmann-La Roche Inc., priority 2019, dated 2025).
pIC50: −log10 of the molar value.

molecular target: T1, human TLR9 (Homo sapiens, UniProt Q9NR96); assay: HEK293-Blue-hTLR-9 cells assay; format: cell-based; details: HEK293-Blue-hTLR9 cells, ODN2006 stimulation, 20 hrs, SEAP reporter; read-out: HEK/hTLR9 IC50
T1 construct: host or cells: HEK293 (HEK-Blue hTLR9)
T1 sequence (Q9NR96 26-1032): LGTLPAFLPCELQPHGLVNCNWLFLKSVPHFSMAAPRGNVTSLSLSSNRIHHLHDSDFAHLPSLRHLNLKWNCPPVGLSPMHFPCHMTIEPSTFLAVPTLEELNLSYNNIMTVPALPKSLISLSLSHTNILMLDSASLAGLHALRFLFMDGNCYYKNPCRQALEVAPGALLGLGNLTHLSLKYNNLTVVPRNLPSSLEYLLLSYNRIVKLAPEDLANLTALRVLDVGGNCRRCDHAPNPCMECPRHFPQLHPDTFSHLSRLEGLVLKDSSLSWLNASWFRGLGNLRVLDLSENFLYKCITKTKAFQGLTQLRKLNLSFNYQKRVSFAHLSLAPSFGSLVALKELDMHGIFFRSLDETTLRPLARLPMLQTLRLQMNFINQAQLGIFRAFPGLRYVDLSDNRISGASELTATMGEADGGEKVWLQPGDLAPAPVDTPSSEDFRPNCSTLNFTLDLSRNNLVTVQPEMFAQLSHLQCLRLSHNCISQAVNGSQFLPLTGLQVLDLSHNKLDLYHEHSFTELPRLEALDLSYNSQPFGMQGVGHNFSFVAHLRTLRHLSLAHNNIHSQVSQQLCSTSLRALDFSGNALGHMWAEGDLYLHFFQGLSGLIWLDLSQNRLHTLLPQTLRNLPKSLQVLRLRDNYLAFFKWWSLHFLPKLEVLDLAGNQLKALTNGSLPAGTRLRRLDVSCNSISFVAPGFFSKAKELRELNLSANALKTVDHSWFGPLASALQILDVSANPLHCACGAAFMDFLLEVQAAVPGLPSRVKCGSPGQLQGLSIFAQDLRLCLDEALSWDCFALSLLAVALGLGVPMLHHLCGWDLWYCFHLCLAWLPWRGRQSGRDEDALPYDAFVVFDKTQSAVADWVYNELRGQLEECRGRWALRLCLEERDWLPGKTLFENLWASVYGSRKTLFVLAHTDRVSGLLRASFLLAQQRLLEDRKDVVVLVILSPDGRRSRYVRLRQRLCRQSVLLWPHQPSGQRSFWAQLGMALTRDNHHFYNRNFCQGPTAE
Description: HEK293-Blue-hTLR-9 Cells Assay:
A stable HEK293-Blue-hTLR-9 cell line was purchased from InvivoGen (Cat. #: hkb-htlr9, San Diego, Calif., USA). These cells were originally designed for studying the stimulation of human TLR9 by monitoring the activation of NF-κB. A SEAP (secreted embryonic alkaline phosphatase) reporter gene was placed under the control of the IFN-β minimal promoter fused to five NF-κB and AP-1-binding sites. The SEAP was induced by activating NF-κB and AP-1 via stimulating HEK-Blue hTLR9 cells with TLR9 ligands. Therefore the reporter expression was declined by TLR9 antagonist under the stimulation of a ligand, such as ODN2006 (Cat. #: tlrl-2006-1, Invivogen, San Diego, Calif., USA), for incubation of 20 hrs. The cell culture supernatant SEAP reporter activity was determined using QUANTI-Blue^TM kit (Cat. #: rep-qbl, Invivogen, San Diego, Calif., USA) at a wavelength of 640 nm, a detection medium that turns purple or blue in the presence of alkaline phosphatase.
HEK293-Blue-hTLR9 cells were incubated at a density of 250,000˜450,000 cells/mL in a volume of 170 μL in a 96-well plate in Dulbecco's Modified Eagle's medium (DMEM) containing 4.5 g/L glucose, 50 U/mL penicillin, […] streptomycin, […] Normocin, 2 mM L-glutamine, 10% (v/v) heat-inactivated fetal bovine serum with addition of 20 μL test compound in a serial dilution in the presence of final DMSO at 1% and 10 μL of 20 uM ODN2006 in above DMEM, perform incubation under 37° C. in a CO2 incubator for 20 hrs. Then 20 μL of the supernatant from each well was incubated with 180 μL Quanti-blue substrate solution at 37° C. for 2 h and the absorbance was read at 620-655 nm using a spectrophotometer. The signaling pathway that TLR9 activation leads to downstream NF-κB activation has been widely accepted, and therefore similar reporter assay was modified for evaluating TLR9 antagonist.

**Q.** [2H]c1ccc2c(N3C[C@@H](C)N4Cc5nc(N6CC[C@H](N)[C@@H](OC)C6)ccc5[C@H]4C3)ccc(C#N)c2n1 [Example 12, 5-[(2S,6R)-11-[(3S,4S)-4-amino-3-methoxy-1-piperidyl]-6-methyl-4,7,10-triazatricyclo[7.4.0.02,7]trideca-1(9),10,12-trien-4-yl]-2-deuterio-quinoline-8-carbonitrile] was tested. Which pIC50 did it give?
**A.** 6.52

**Q.** How did the pIC50 turn out when [2H]c1ccc2c(N3C[C@@H](C)N4Cc5nc(N6CC[C@H](N)[C@H](OC)C6)ccc5[C@H]4C3)ccc(C#N)c2n1 [Example 13, 5-[(2S,6R)-11-[(3R,4S)-4-amino-3-methoxy-1-piperidyl]-6-methyl-4,7,10-triazatricyclo[7.4.0.02,7]trideca-1(9),10,12-trien-4-yl]-2-deuterio-quinoline-8-carbonitrile] was run?
**A.** 6.54

**Q.** With [2H]c1ccc2c(N3C[C@@H](C)N4Cc5nc(N6CC[C@H](OC)[C@@H](N)C6)ccc5[C@H]4C3)ccc(C#N)c2n1 [Example 14, 5-[(2S,6R)-11-[(3S,4S)-3-amino-4-methoxy-1-piperidyl]-6-methyl-4,7,10-triazatricyclo[7.4.0.02,7]trideca-1(9),10,12-trien-4-yl]-2-deuterio-quinoline-8-carbonitrile] as the compound, how does the pIC50 read?
**A.** 6.50

**Q.** [2H]c1ccc2c(N3C[C@@H](C)N4Cc5nc(N6CC[C@@H](OC)[C@H](N)C6)ccc5[C@H]4C3)ccc(C#N)c2n1 [Example 15, 5-[(2S,6R)-11-[(3R,4R)-3-amino-4-methoxy-1-piperidyl]-6-methyl-4,7,10-triazatricyclo[7.4.0.02,7]trideca-1(9),10,12-trien-4-yl]-2-deuterio-quinoline-8-carbonitrile] was tested. Which pIC50 did it give?
**A.** 6.67

**Q.** [2H]c1ccc2c(N3C[C@@H](C)N4Cc5nc(N6C[C@@H]7C[C@H]6CN7)ccc5[C@H]4C3)ccc(C#N)c2n1 [Example 16, 2-Deuterio-5-[(2S,6R)-11-[(1S,4S)-2,5-diazabicyclo[2.2.1]heptan-2-yl]-6-methyl-4,7,10-triazatricyclo[7.4.0.02,7]trideca-1(9),10,12-trien-4-yl]quinoline-8-carbonitrile] was tested. Which pIC50 did it give?
**A.** 6.92

**Q.** How did the pIC50 turn out when [2H]c1ccc2c(N3C[C@@H](C)N4Cc5nc(N6C[C@H]7C[C@@H]6CN7)ccc5[C@H]4C3)ccc(C#N)c2n1 [Example 17, 2-Deuterio-5-[(2S,6R)-11-[(1R,4R)-2,5-diazabicyclo[2.2.1]heptan-2-yl]-6-methyl-4,7,10-triazatricyclo[7.4.0.02,7]trideca-1(9),10,12-trien-4-yl]quinoline-8-carbonitrile] was run?
**A.** 7.27

**Q.** With [2H]c1ccc2c(N3C[C@@H](C)N4Cc5nc(N6CCC7(CC6)CNCCO7)ccc5[C@H]4C3)ccc(C#N)c2n1 [Example 18, 2-Deuterio-5-[(2S,6R)-6-methyl-11-(1-oxa-4,9-diazaspiro[5.5]undecan-9-yl)-4,7,10-triazatricyclo[7.4.0.02,7]trideca-1(9),10,12-trien-4-yl]quinoline-8-carbonitrile] as the compound, how does the pIC50 read?
**A.** 6.58

**Q.** How did the pIC50 turn out when [2H]c1ccc2c(N3C[C@@H](C)N4Cc5nc(N6CCC(C)(N)CC6)ccc5[C@H]4C3)ccc(C#N)c2n1 [Example 19, 5-[(2S,6R)-11-(4-amino-4-methyl-1-piperidyl)-6-methyl-4,7,10-triazatricyclo[7.4.0.02,7]trideca-1(9),10,12-trien-4-yl]-2-deuterio-quinoline-8-carbonitrile] was run?
**A.** 6.85

**Q.** With C[C@@H]1CN(c2ccc(C#N)c3ncccc23)C[C@@H]2c3ccc(N4CCCNCC4)nc3CN12 [Example 20, 5-[(2S,6R)-11-(1,4-diazepan-1-yl)-6-methyl-4,7,10-triazatricyclo[7.4.0.02,7]trideca-1(9),10,12-trien-4-yl]quinoline-8-carbonitrile] as the compound, how does the pIC50 read?
**A.** 6.69

**Q.** With C[C@@H]1CN(c2ccc(C#N)n3nccc23)C[C@@H]2c3ccc(N4C[C@@H]5C[C@H]4CN5)nc3CN12 [Example 21, 4-[(2S,6R)-11-[(1S,4S)-2,5-diazabicyclo[2.2.1]heptan-2-yl]-6-methyl-4,7,10-triazatricyclo[7.4.0.02,7]trideca-1(9),10,12-trien-4-yl]pyrazolo[1,5-a]pyridine-7-carbonitrile] as the compound, how does the pIC50 read?
**A.** 6.75

**Q.** [2H]c1ccc2c(N3C[C@@H](C)N4Cc5nc(C6CCNCC6)ccc5[C@H]4C3)ccc(C#N)c2n1 [Example 23, 2-Deuterio-5-[(2S,6R)-6-methyl-11-(4-piperidyl)-4,7,10-triazatricyclo[7.4.0.02,7]trideca-1(9),10,12-trien-4-yl]quinoline-8-carbonitrile] was tested. Which pIC50 did it give?
**A.** 6.63

**Q.** With [2H]c1ccc2c(N3C[C@@H](C)N4Cc5nc(OC6CCNCC6)ccc5[C@H]4C3)ccc(C#N)c2n1 [Example 24, 2-Deuterio-5-[(2S,6R)-6-methyl-11-(4-piperidyloxy)-4,7,10-triazatricyclo[7.4.0.02,7]trideca-1(9),10,12-trien-4-yl]quinoline-8-carbonitrile] as the compound, how does the pIC50 read?
**A.** 6.93

**Q.** How did the pIC50 turn out when [2H]c1ccc2c(N3C[C@@H](C)N4Cc5nc(O[C@H]6CCNC6)ccc5[C@H]4C3)ccc(C#N)c2n1 [Example 25, 2-Deuterio-5-[(2S,6R)-6-methyl-11-[(3S)-pyrrolidin-3-yl]oxy-4,7,10-triazatricyclo[7.4.0.02,7]trideca-1(9),10,12-trien-4-yl]quinoline-8-carbonitrile] was run?
**A.** 6.56
